{"source": "patent US12600712B2", "about": "(Hoffmann-La Roche Inc., priority 2020, dated 2026)"}
{"molecular_target": "T1, human Autotaxin (ATX) (Homo sapiens, UniProt Q13822)", "T1 construct": "used as template in overlapping PCR to generate a full length human ENPP2 ORF with or without a 3′-6×His tag; 6xHis (C); made in house; host or cells: FreeStyle 293-F cells (transient transfection, protein purified from culture supernatant)", "assay": "Human ATX enzyme inhibition assay (LPC substrate, choline oxidase/HRP/Amplex Red coupled format)", "type": "biochemical", "details": "recombinant hATX 1 nM, 18:1 LPC 30 μM, fluorescence at 90 min minus 5 min", "protocol": "Human ATX Enzyme Inhibition Assay\nTo identify inhibitors of the human Autotaxin (ATX) enzyme an in-vitro biochemical profiling assay has been developed using lysophosphatidylcholine (LPC) as substrate and recombinant enzyme. ATX activity is assayed via a coupled enzyme format where choline produced from LPC hydrolysis is converted to hydrogen peroxide by choline oxidase (CO). Hydrogen peroxide is in turn used as a co-substrate by horseradish peroxidase (HRP) to oxidise Amplex Red® and generate the red-fluorescent product, Resorufin.\n50 mM Tris-HCl (pH 8.0); 120 mM NaCl; 20 mM CaCl2); 5 mM KCl; 1 mM MgCl2; 0.01% Triton X-100, sterile-filtered and stored at 4° C.\n50 mM Tris-HCl (pH 8.0); 150 mM NaCl human Autotaxin (hATX): 0.97 mg/ml (9.718 μM) Molecular weight 99817. Working solution of 1.5 μM used in this assay.\n100 mM 18:1 LPC dissolved in reagent dilution-buffer.\n500 U/ml Choline Oxidase in reagent dilution buffer.\n2540 U/ml Horseradish Peroxidase, in reagent dilution buffer (10.95 mg/ml).\n20 mM Amplex Red (10-Acetyl-3,7-dihydroxy-phenoxazin) in DMSO.\nBlack, 384-well plate, black with clear bottom, non-treated surface.\nTest compounds are received pre-diluted in DMSO as an 11-point concentration-response (0.5 mM highest concentration; 1 in 3.162 dilution). Test compounds are pre-diluted 1:1 (10 μL compound+10 μL assay buffer) in a 96-well conical bottomed plate prior to use.\nATX is diluted to 2.2 nM in assay buffer. Choline oxidase and horseradish peroxidase are diluted to 7.3 U/ml and 14.7 U/ml, respectively. 18:1 LPC and Amplex Red® are diluted to 110 μM and 183.3 μM, respectively (solution protected from light). 2.2 μL of compound pre-dilution or 50% DMSO is added to the reaction plate followed by 25 μL of ATX or assay buffer (negative control). Assay plate is mixed and incubated at room temperature for 10 mins. 15 μL of choline oxidase/horseradish peroxidase is then added. To initiate the reaction 15 μL of LPC 18:1/Amplex Red is added. Assay plate is mixed and incubated at room temperature in the dark. Fluorescence is measured at 5 mins (for background subtraction) and 90 mins.\n• hATX: 1 nM • 18:1 LPC: 30 μM • Choline Oxidase: 2 U/ml • Horse Radish Peroxidase: 4 U/ml • Amplex Red®: 50 μM • DMSO: 2%\nFluorescence at 5-minutes is subtracted from the 90-minute end point data and normalized with respect to the positive control. IC50 values are calculated.\nResults in the enzymatic ATX inhibition assay are provided for compounds of formula (I).", "units": {"IC50": "nM"}}
{"smiles": "O=C(c1cnc(NC2Cc3cc(Cl)cc(C(F)(F)F)c3C2)nc1)N1CCC12COC2", "note": "(stereo not shown) [Example 10, (2-((6-chloro-4-(trifluoromethyl)-2,3-dihydro-1 H-inden-2-yl)amino)pyrimidin-5-yl)(6-oxa-1-azaspiro[3.3]heptan-1-yl)melhanone]", "IC50": 184}
{"smiles": "N#Cc1cc(Cl)cc2c1CC(Nc1ncc(C(=O)N3CCC34COC4)cn1)C2", "note": "(stereo not shown) [Example 4, 2-((5-(6-oxa-1-azaspiro[3.3]heptane-1-carbonyl)pyrimidin-2-yl)amino)-6-chloro-2,3-dihydro-1H-indene-4-carbonitrile]", "IC50": 20.8}
{"smiles": "O=C(c1cnc(NC2Cc3ccc(Cl)c(F)c3C2)nc1)N1CCC12COC2", "note": "(stereo not drawn) [Example 9, (2-((5-chloro-4-fluoro-2,3-dihydro-lH-inden-2-yl)amino)pyrimidin-5-yl)(6-oxa-1-azaspiro[3.3]heplan-l-yl)methanone]", "IC50": 123}
{"smiles": "O=C(c1cnc(NC2Cc3cc(Cl)cc(Cl)c3C2)nc1)N1CCC12COC2", "note": "(stereo not shown) [Example 1]", "IC50": 13}
{"smiles": "Cc1cc(Cl)cc2c1CC(Nc1ncc(C(=O)N3CCC34COC4)cn1)C2", "note": "(stereo not shown) [Example 2, (2-((6-chloro-4-methyl-2,3-dihydro-1H-inden-2-yl)amino)pyrimidin-5-yl)(6-oxa-1-azaspiro[3.3]heptan-1-yl)methanone]", "IC50": 62}
{"smiles": "O=C(c1cnc(NC2Cc3cccc(Cl)c3C2)nc1)N1CCC12COC2", "note": "(stereo not shown) [Example 15, (2-((4-chloro-2,3-dihydro-1H-inden-2-yl)amino)pyrimidin-5-yl)(6-oxa-1-azaspiro[3.3]heptan-1-yl)methanone]", "IC50": 282}
{"smiles": "Cc1c(Cl)ccc2c1CC(Nc1ncc(C(=O)N3CCC34COC4)cn1)C2", "note": "(stereo not shown) [Example 6]", "IC50": 101}
{"smiles": "O=C(c1cnc(NC2Cc3cc(Cl)cc(OC(F)F)c3C2)nc1)N1CCC12COC2", "note": "(stereo not shown) [Example 5]", "IC50": 224}
{"smiles": "CC#Cc1cc(Cl)cc2c1CC(Nc1ncc(C(=O)N3CCC34COC4)cn1)C2", "note": "(stereo not drawn) [Example 7, (2-((6-chloro-4-(prop-l-yn-1-yl)-2,3-dihydro-lH-inden-2-yl)amino)pyrimidin-5-yl)(6-oxa-1-azaspiro[3.3]heplan-l-yl)methanone]", "IC50": 23.7}
{"smiles": "CC1(C)CCN1C(=O)c1cnc(N[C@H]2Cc3cc(Cl)cc(C#N)c3C2)nc1", "note": "[Example 12, (S)-6-chloro-2-((5-(2,2-dimethylazetidine-1-carbonyl)pyrimidin-2-yl)amino)-2.3-dihydro-1H-indene-4-carbonitrile]", "IC50": 6.5}
{"smiles": "N#Cc1cc(Cl)cc2c1C[C@@H](Nc1ncc(C(=O)N3CCC34CC(F)(F)C4)cn1)C2", "note": "[Example 13, (S)-6-chloro-2-((5-(6,6-difluoro-1-azaspiro[3.3]heptane-1-carbonyl)pyrimidin-2-yl)amino)-2,3-dihydro-1H-indene-4-carbonitrile]", "IC50": 3}
{"smiles": "O=C(c1cnc(NC2Cc3ccc(Cl)c(Cl)c3C2)nc1)N1CCC12COC2", "note": "(stereo not shown) [Example 3, (2-((4,5-dichloro-2,3-dihydro-1H-inden-2-yl)amino)pyrimidin-5-yl)(6-oxa-1-azaspiro[3.3]heptan-1-yl)methanone]", "IC50": 128}
{"smiles": "O=C(c1cnc(NC2Cc3cc(Cl)cc(F)c3C2)nc1)N1CCC12COC2", "note": "(single isomer, unassigned) [Example 16, (S or R)-(2-((6-chloro-4-fluoro-2,3-dihydro-1H-inden-2-yl)amino)pyrimidin-5-yl)(6-oxa-1-azaspiro[3.3]heptan-1-yl)methanone]", "IC50": 45.1}
{"smiles": "N#Cc1cc(Cl)cc2c1C[C@@H](Nc1ncc(C(=O)N3CCC34COC4)cn1)C2", "note": "[Example 11, (S)-2-((5-(6-oxa-1-azaspiro[3.3]heptane-1-carbonyl)pyrimidin-2-yl)amino)-6-chloro-2,3-dihydro-1H-indene-4-carbonitrile]", "IC50": 7.4}
{"smiles": "C[C@]1(O)C[C@]2(CCN2C(=O)c2cnc(N[C@H]3Cc4cc(Cl)cc(C#N)c4C3)nc2)C1", "note": "[Example 14, (cis)-6-chloro-2-(S)-((5-(6-hydroxy-6-methyl-1-azaspiro[3.3]heptane-1-carbonyl)pyrirnidin-2-yl)amino)-2,3-dihydro-1H-indene-4-carbonitrile]", "IC50": 5.5}
{"smiles": "O=C(c1cnc(NC2Cc3cc(Cl)cc(F)c3C2)nc1)N1CCC12COC2", "note": "(racemic) [Example 8, (2-((6-chloro-4-fluoro-2,3-dihydro-1H-inden-2-yl)amino)pyrimidin-5-yl)(6-oxa-1-azaspiro[3.3]heplan-l-yl)melhanone]", "IC50": 111}
